# Measured values as given in US11685719B2, “Pyridinone MK2 inhibitors and uses thereof” (Xinthera, Inc., priority 2021, dated 2023).
# Assays:
# p38a/MK2 = p38a/MK2 (Homo sapiens (Human), UniProt P49137+Q16539); experiment: biochemical; conditions: 10-point 1:3 dilution, top dose 1 μM; 10 μM ATP, 2 h incubation; read-out: p38a/MK2 (1 μM) Enzyme pIC50 (converted)
# Protocol: (§1) Expression vectors of the recombinant MK2 and PRAK kinases were constructed by cloning of the codon optimized gene sequences of MK2 (Uniprot ID P49137, amino acid fragment F46-H400), or PRAK (Uniprot ID Q81W41, amino acid fragment M1-Q471) into pGEX-4T1 (GE) for over expression of these kinases with N-terminal GST-tag. Protein expression was carried out in E. coli BL21 by growing the hosts in TB medium, induction of protein expression with 0.5 mM IPTG at approximate 0.8 OD600, and incubation of the cultures at 18° C. for 14-20 hours afterwards. The harvested cells were resuspended in […] of Lysis buffer (50 mM Tris-HCl, pH 8.0, 500 mM NaCl, 1 mM DTT, 5% glycerol, and 1 mM PMSF) per gram of wet cell mass and homogenized at 4° C. in a microfluidizer (ATS, Suzhou, China) at 14,000 psi pressure, 3 passes. The cell lysates were clarified by centrifugation and the supernatants containing the GST-fusion proteins were purified by affinity chromatography using GSH-Sepharose (GE) gravity flow columns pre-equilibrated in Buffer A (50 mM Tris-HCl, pH 8.0, 500 mM NaCl, 1 mM DTT, and 5% glycerol). After thorough washing of the columns with Buffer A, the bound GST-proteins were eluted by Buffer B (50 mM Tris, pH 8.0, 500 mM NaCl, 1 mM DTT, 5% glycerol, 10 mM glutathione), followed by size-exclusion purification on Superdex 200 column equilibrated in Buffer A. The purified proteins were concentrated to approximately 1 mg/ml and stored at −80° C.
# (§2) This study evaluates the inhibitory potency of invention compound on p38/MK2 pathway vs p38/PRAK pathway. More specially the compound concentration (IC50) was determined that inhibited half of the maximal activation of MK2 or PRAK by p38. MK2 activation study was set up without or with a serial of 10-point 1:3 dilution of invention compound at top dose of 1 or 10 μM, and PRAK activation study was set up without or with a serial of 10-point 1:3 dilution of invention compound at top dose of 300 μM. The MIK2 and PRAK activity were determined by the phosphorylation level of HSP27 peptide conjugated with FITC.
# p38a/PRAK = p38a/PRAK (Homo sapiens (Human), UniProt Q16539); experiment: biochemical; conditions: 10-point 1:3 dilution, top dose 300 μM; 10 μM ATP, 2 h incubation; read-out: p38a/PRAK Enzyme pIC50 (converted)
# Chain of p38a/PRAK (Q16539 whole entry): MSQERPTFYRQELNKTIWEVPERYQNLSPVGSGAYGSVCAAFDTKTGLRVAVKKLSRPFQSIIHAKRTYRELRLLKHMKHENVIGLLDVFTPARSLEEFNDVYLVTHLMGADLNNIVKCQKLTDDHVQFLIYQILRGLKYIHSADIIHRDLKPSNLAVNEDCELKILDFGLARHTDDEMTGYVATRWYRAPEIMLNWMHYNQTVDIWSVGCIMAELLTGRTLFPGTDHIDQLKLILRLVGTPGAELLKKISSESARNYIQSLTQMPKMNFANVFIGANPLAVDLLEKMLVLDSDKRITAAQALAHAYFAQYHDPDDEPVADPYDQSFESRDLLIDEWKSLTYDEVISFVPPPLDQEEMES
# Protocol: as §1, §2
# Chain of p38a/MK2 (Q16539 whole entry, the tested form may be a part): as the sequence (Q16539 whole entry) above
# Chain of p38a/MK2 (P49137 46-400): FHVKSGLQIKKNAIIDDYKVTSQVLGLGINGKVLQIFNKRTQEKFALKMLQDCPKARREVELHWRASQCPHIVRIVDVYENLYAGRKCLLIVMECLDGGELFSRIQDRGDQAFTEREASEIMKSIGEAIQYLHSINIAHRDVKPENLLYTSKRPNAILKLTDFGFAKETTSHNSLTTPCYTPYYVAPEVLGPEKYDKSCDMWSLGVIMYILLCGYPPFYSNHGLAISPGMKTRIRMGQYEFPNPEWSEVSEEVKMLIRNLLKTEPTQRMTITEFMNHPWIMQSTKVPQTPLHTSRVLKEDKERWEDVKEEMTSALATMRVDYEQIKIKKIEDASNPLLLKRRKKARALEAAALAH
Compound,IC50 (p38a/MK2) [nM],IC50 (p38a/PRAK) [µM]
"Cc1cnc(-n2cccc(C3(O)CCC3)c2=O)cc1-n1c(C)cc(OCc2ncc(F)cc2F)c(Cl)c1=O (single isomer, unassigned) [Example 12A, rel-3-chloro-4-[(3,5-difluoropyridin-2-yl)methoxy]-2′-[3-(1-hydroxycyclobutyl)-2-oxopyridin-1-yl]-5′,6-dimethyl-[1,4′-bipyridin]-2-one]",12.6,7.94
"Cc1cnc(-n2cccc(C3(O)CCC3)c2=O)cc1-n1c(C)cc(OCc2ncc(F)cc2F)c(Cl)c1=O (single isomer, unassigned) [Example 12B, rel-3-chloro-4-[(3,5-difluoropyridin-2-yl)methoxy]-2′-[3-(1-hydroxycyclobutyl)-2-oxopyridin-1-yl]-5′,6-dimethyl-[1,4′-bipyridin]-2-one]",> 1000,> 316
"Cc1cnc(-n2cc(C(C)(C)O)ccc2=O)cc1-n1c(C)cc(OCc2ncc(F)cc2F)c(Cl)c1=O (single isomer, unassigned) [Example 13A, rel-3-chloro-4-[(3,5-difluoropyridin-2-yl)methoxy]-2′-[5-(2-hydroxypropan-2-yl)-2-oxopyridin-1-yl]-5′,6-dimethyl-[1,4′-bipyridin]-2-one]",> 1000,> 316
"Cc1cnc(-n2ccc(C)c(C(C)(C)O)c2=O)cc1-n1c(C)cc(OCc2ncc(F)cc2F)c(Cl)c1=O (single isomer, unassigned) [Example 15A, rel-3-chloro-4-[(3,5-difluoropyridin-2-yl)methoxy]-2′-[3-(2-hydroxypropan-2-yl)-4-methyl-2-oxopyridin-1-yl]-5′,6-dimethyl-[1,4′-bipyridin]-2-one]",10,2.51
"Cc1cnc(-n2ccc(C)c(C(C)(C)O)c2=O)cc1-n1c(C)cc(OCc2ncc(F)cc2F)c(Cl)c1=O (single isomer, unassigned) [Example 15B, rel-3-chloro-4-[(3,5-difluoropyridin-2-yl)methoxy]-2′-[3-(2-hydroxypropan-2-yl)-4-methyl-2-oxopyridin-1-yl]-5′,6-dimethyl-[1,4′-bipyridin]-2-one]",> 1000,> 316
"Cc1ncc(-n2cccc(C(C)(C)O)c2=O)cc1-n1c(C)cc(OCc2ncc(F)cc2F)c(Cl)c1=O (single isomer, unassigned) [Example 16B, rel-5′-{3-chloro-4-[(3,5-difluoropyridin-2-yl)methoxy]-6-methyl-2-oxopyridin-1-yl}-3-(2-hydroxypropan-2-yl)-6′-methyl-[1,3′-bipyridin]-2-one]",> 1000,> 316
"[2H]C([2H])(Oc1cc(C)n(-c2cc(-n3cccc(C(C)(C)O)c3=O)ncc2C)c(=O)c1Cl)c1ncc(F)cc1F (single isomer, unassigned) [Example 18A, rel-3″-chloro-4″-((3,5-difluoropyridin-2-yl)methoxy-d2)-3-(2-hydroxypropan-2-yl)-5′,6″-dimethyl-2H,2″H-[1,2′:4′,1″-terpyridine]-2,2″-dione]",1.58,3.16
"[2H]C([2H])(Oc1cc(C)n(-c2cc(-n3cccc(C(C)(C)O)c3=O)ncc2C)c(=O)c1Cl)c1ncc(F)cc1F (single isomer, unassigned) [Example 18B, rel-3″-chloro-4″-((3,5-difluoropyridin-2-yl)methoxy-d2)-3-(2-hydroxypropan-2-yl)-5′,6″-dimethyl-2H,2″H-[1,2′:4′,1″-terpyridine]-2,2″-dione]",> 100,> 316

# The remaining lines, values ahead:
IC50 (p38a/MK2) [nM],IC50 (p38a/PRAK) [µM],Compound
> 1000,> 316,"Cc1cnc(-n2cncc(C(C)(C)O)c2=O)cc1-n1c(C)cc(OCc2ncc(F)cc2F)c(Cl)c1=O (single isomer, unassigned) [Example 10B, rel-3-chloro-4-[(3,5-difluoropyridin-2-yl)methoxy]-2′-[5-(2-hydroxypropan-2-yl)-6-oxopyrimidin-1-yl]-5′,6-dimethyl-[1,4′-bipyridin]-2-one]"
3.98,5.01,"Cc1cnc(-n2cccc(C(C)(C)CO)c2=O)cc1-n1c(C)cc(OCc2ncc(F)cc2F)c(Cl)c1=O (single isomer, unassigned) [Example 11A, rel-3-chloro-4-[(3,5-difluoropyridin-2-yl)methoxy]-2′-[3-(1-hydroxy-2-methylpropan-2-yl)-2-oxopyridin-1-yl]-5′,6-dimethyl-[1,4′-bipyridin]-2-one]"
> 1000,> 316,"Cc1cnc(-n2cccc(C(C)(C)CO)c2=O)cc1-n1c(C)cc(OCc2ncc(F)cc2F)c(Cl)c1=O (single isomer, unassigned) [Example 11B, rel-3-chloro-4-[(3,5-difluoropyridin-2-yl)methoxy]-2′-[3-(1-hydroxy-2-methylpropan-2-yl)-2-oxopyridin-1-yl]-5′,6-dimethyl-[1,4′-bipyridin]-2-one]"
1.58,3.16,"Cc1cnc(-n2cccc([C@](C)(O)C3CC3)c2=O)cc1-n1c(C)cc(OCc2ncc(F)cc2F)c(Cl)c1=O (single isomer, unassigned) [Example 14A, rel-3-chloro-2′-[3-(1-cyclopropyl-1-hydroxyethyl)-2-oxopyridin-1-yl]-4-[(3,5-difluoropyridin-2-yl)methoxy]-5′,6-dimethyl-[1,4′-bipyridin]-2-one]"
1.26,3.16,"Cc1cnc(-n2cccc([C@@](C)(O)C3CC3)c2=O)cc1-n1c(C)cc(OCc2ncc(F)cc2F)c(Cl)c1=O (single isomer, unassigned) [Example 14B, rel-3-chloro-2′-[3-(1-cyclopropyl-1-hydroxyethyl)-2-oxopyridin-1-yl]-4-[(3,5-difluoropyridin-2-yl)methoxy]-5′,6-dimethyl-[1,4′-bipyridin]-2-one]"
> 1000,> 316,"Cc1cnc(-n2cccc([C@](C)(O)C3CC3)c2=O)cc1-n1c(C)cc(OCc2ncc(F)cc2F)c(Cl)c1=O (single isomer, unassigned) [Example 14C, rel-3-chloro-2′-[3-(1-cyclopropyl-1-hydroxyethyl)-2-oxopyridin-1-yl]-4-[(3,5-difluoropyridin-2-yl)methoxy]-5′,6-dimethyl-[1,4′-bipyridin]-2-one]"
> 1000,> 316,"Cc1cnc(-n2cccc([C@@](C)(O)C3CC3)c2=O)cc1-n1c(C)cc(OCc2ncc(F)cc2F)c(Cl)c1=O (single isomer, unassigned) [Example 14D, rel-3-chloro-2′-[3-(1-cyclopropyl-1-hydroxyethyl)-2-oxopyridin-1-yl]-4-[(3,5-difluoropyridin-2-yl)methoxy]-5′,6-dimethyl-[1,4′-bipyridin]-2-one]"
200,7.94,"Cc1ncc(-n2cccc(C(C)(C)O)c2=O)cc1-n1c(C)cc(OCc2ncc(F)cc2F)c(Cl)c1=O (single isomer, unassigned) [Example 16A, rel-5′-{3-chloro-4-[(3,5-difluoropyridin-2-yl)methoxy]-6-methyl-2-oxopyridin-1-yl}-3-(2-hydroxypropan-2-yl)-6′-methyl-[1,3′-bipyridin]-2-one]"
1.58,6.31,"Cc1cnc(-n2cccc(C(C)C)c2=O)cc1-n1c(C)cc(OCc2ncc(F)cc2F)c(Cl)c1=O (single isomer, unassigned) [Example 17A, rel-3-chloro-4-[(3,5-difluoropyridin-2-yl)methoxy]-2′-(3-isopropyl-2-oxopyridin-1-yl)-5′,6-dimethyl-[1,4′-bipyridin]-2-one]"
> 1000,> 316,"Cc1cnc(-n2cccc(C(C)C)c2=O)cc1-n1c(C)cc(OCc2ncc(F)cc2F)c(Cl)c1=O (single isomer, unassigned) [Example 17B, rel-3-chloro-4-[(3,5-difluoropyridin-2-yl)methoxy]-2′-(3-isopropyl-2-oxopyridin-1-yl)-5′,6-dimethyl-[1,4′-bipyridin]-2-one]"
1,1.58,"[2H]C([2H])(Oc1cc(C)n(-c2cc(-n3ccnc(C(C)(C)O)c3=O)ncc2C)c(=O)c1Cl)c1ncc(F)cc1F (single isomer, unassigned) [Example 19A, rel-3-chloro-4-((3,5-difluoropyridin-2-yl)methoxy-d2)-2′-(3-(2-hydroxypropan-2-yl)-2-oxopyrazin-1(2H)-yl)-5′,6-dimethyl-2H-[1,4′-bipyridin]-2-one]"
